Holding throughout (type): functional, cell-based
Assay [1] deals with K562. In words: Cytotoxicity against human K562 cells by MTT assay. For orientation: Tetrazolium dyes change colour on reduction, which living cells bring about.
Assay [2] relates to K562. In words: Cytotoxicity against human adriamycin resistant K562 cells by MTT assay.
Assay [3] deals with BGC-823. Kind of assay: Cytotoxicity against human BGC823 cells by MTT assay.
For assay [4], the system named is HepG2. In words: Cytotoxicity against human HepG2 cells by MTT assay.

Activity calls are given as the source filed them. No cut-off for these calls is given here.

`CC1=CC(=O)C2=C(COC(=O)CC(C)C)C[C@H](OS(=O)(=O)O)[C@@H]3[C@H](OC(=O)[C@H]3C)[C@@H]12`: the result in assay [1], in assay [2], in assay [3] and in assay [4] was inactive.
On to `C=C1[C@@H]2[C@H]3OC(=O)[C@@H](CNCC4CCC(=O)O4)[C@@H]3CCC(=C)[C@@H]2C[C@@H]1O[C@@H]1O[C@H](CO)[C@@H](O)[C@H](O)[C@H]1O` (stereo partly specified), for which the result in assay [1], in assay [2], in assay [3] and in assay [4] was inactive.
As to `CC1=CC(=O)C2=C(COC(=O)CC(C)C)C[C@H](O)[C@@H]3[C@H](OC(=O)[C@H]3C)[C@@H]12`, the outcome in assay [1], in assay [2], in assay [3] and in assay [4] was inactive.
In general, IC50 refers to the concentration at which inhibition is half-maximal. Read a high IC50 as lower potency. `C=C1[C@@H]2[C@H]3OC(=O)[C@@H](CNCC4CCC(=O)O4)[C@@H]3CCC(=C)[C@@H]2C[C@@H]1O` (stereo partly specified) [SCORZOAUSTRIACIN] yielded a half-maximal inhibitory concentration (IC50) in assay [1] of 11.3 µM. Also, the result in assay [2], in assay [3] and in assay [4] was inactive.

The record behind these values is ChEMBL document CHEMBL1154982, “Sesquiterpene lactones from Scorzonera austriaca” (J Nat Prod, 2010).
